# Experimental data: patent US10681909B2, “Herbicidal triazoles” (FMC Corporation, priority 2014, dated 2020)
# Legend:
# [1] = system: speedwell; assay: Test D preemergence; format: in vivo, Veronica persica; conditions: scale 0 to 100
# Text: (§1) Seeds of plant species selected from bluegrass (annual bluegrass, Poa annua), blackgrass (Alopecurus myosuroides), canarygrass (Phalaris minor), chickweed (common chickweed, Stellaria media), galium (catchweed bedstraw, Galium aparine), bromegrass, down (downy bromegrass, Bromus tectorum), Russian thistle (Salsola kali), field poppy (Papaver rhoeas), field violet (Viola arvensis), foxtail, green (green foxtail, Setaria viridis), deadnettle (henbit deadnettle, Lamium amplexicaule), ryegrass, Ital. (Italian ryegrass, Lolium multiflorum), kochia (Kochia scoparia), lambsquarters (Chenopodium album), oilseed rape (Brassica napus), pigweed (Amaranthus retroflexus), chamomile (scentless chamomile, Matricaria inodora), speedwell (bird's-eye speedwell, Veronica persica), barley, spring (spring barley, Hordeum vulgare), wheat, spring (spring wheat, Triticum aestivum), buckwheat, wild (wild buckwheat, Polygonum convolvulus), wild mustard (Sinapis arvensis), oat, wild (wild oat, Avena fatua), radish, wild (wild radish, Raphanus raphanistrum), […]), barley, winter (winter barley, Hordeum vulgare), and wheat, winter (winter wheat, Triticum aestivum) were planted into a silt loam soil and treated preemergence with test chemicals formulated in a non-phytotoxic solvent mixture which included a surfactant. At the same time, these species were planted in pots containing Sunshine Redi-Earth® planting medium comprising spaghnum peat moss, vermiculite, starter nutrients and dolomitic limestone and treated with postemergence applications of the test chemicals formulated in the same manner. Plants ranged in height from 2 to 18 cm (1- to 4-leaf stage). Treated plants and controls were maintained in a controlled growth environment for 14 to 21 d after which time all species were compared to controls and visually evaluated. […] A dash (-) response means no test result.
# [2] = system: lambsquarters; assay: Test D preemergence; format: in vivo, Chenopodium album; conditions: scale 0 to 100
# Text: as §1
# [3] = system: morningglory; assay: Test A postemergence; format: in vivo, Ipomoea spp.; conditions: Ipomoea, post-emergence, 240 h, 0 to 100 scale (0 no effect, 100 complete control), approx. 10 d, read-out: Plant response rating, Morningglory; for pest or weed control at 125 g/ha: 125 g ai/ha; for pest or weed control at 500 g/ha: 500 g ai/ha
# Outline: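 Loam/sand soil mix; compound in non-phytotoxic solvent + surfactant. Pre: directed soil spray right after planting seed. Post: potted plants 2–10 cm, 1–2 leaf stage, sprayed with same formulation.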
# [4] = system: blackgrass; assay: Test D postemergence; format: in vivo, Alopecurus myosuroides; conditions: scale 0 to 100
# Text: as §1
# [5] = system: pigweed; assay: Test D postemergence; format: in vivo, Amaranthus retroflexus; conditions: scale 0 to 100
# Text: as §1
# [6] = system: chamomile; assay: Test D postemergence; format: in vivo, Matricaria inodora; conditions: scale 0 to 100
# Text: as §1
# [7] = system: radish, wild; assay: Test D preemergence; format: in vivo, Raphanus raphanistrum; conditions: scale 0 to 100
# Text: as §1
# [8] = system: oilseed rape; assay: Test D postemergence; format: in vivo, Brassica napus; conditions: scale 0 to 100
# Text: as §1
# [9] = system: ragweed; assay: Test A postemergence; format: in vivo, Ambrosia elatior; conditions: 0 to 100 scale (0 no effect, 100 complete control), approx. 10 d
# Text: (§2) Seeds of plant species selected from barnyardgrass (Echinochloa crus-galli), crabgrass, large (large crabgrass, Digitaria sanguinalis), kochia (Kochia scoparia), ragweed (common ragweed, Ambrosia elatior), foxtail, giant (giant foxtail, Setaria faberii), morningglory (Ipomoea spp.), pigweed (Amaranthus retroflexus), velvetleaf (Abutilon theophrasti), ryegrass, Italian (Italian ryegrass, Lolium multiflorum), wheat (Triticum aestivum), and corn (Zea mays) were planted into a blend of loam soil and sand and treated preemergence with a directed soil spray using test chemicals formulated in a non-phytotoxic solvent mixture which included a surfactant.
# (§3) At the same time, plants selected from these crop and weed species and also blackgrass (Alopecurus myosuroides), and galium (catchweed bedstraw, Galium aparine), were planted in pots containing the same blend of loam soil and sand and treated with postemergence applications of test chemicals formulated in the same manner. Plants ranged in height from 2 to 10 cm and were in the one- to two-leaf stage for the postemergence treatment. Treated plants and untreated controls were maintained in a greenhouse for approximately 10 d, after which time all treated plants were compared to untreated controls and visually evaluated for injury. Plant response ratings, summarized in Table A, are based on a 0 to 100 scale where 0 is no effect and 100 is complete control. A dash (-) response means no test result.
# [10] = system: ryegrass, Italian; assay: Test A postemergence; format: in vivo, Lolium multiflorum; conditions: 0 to 100 scale (0 no effect, 100 complete control), approx. 10 d
# Text: as §2, §3
# [11] = system: blackgrass; assay: Test A postemergence; format: in vivo, Alopecurus myosuroides; conditions: 0 to 100 scale (0 no effect, 100 complete control), approx. 10 d
# Text: as §2, §3
smiles,measurement,setting,value
"CCc1nc(-c2ccc(C(F)(F)F)cc2)nn1Cc1ccnc(C(F)(F)F)c1 [Compound 1, 4-[[5-ethyl-3-[4-(trifluoromethyl)phenyl]-1H-1,2,4-triazol-1-yl]methyl]-2-(trifluoromethyl)pyridine]",Plant response rating: Speedwell,[1]; 62 g ai/ha,100
same,Plant response rating: Speedwell,[1]; 125 g ai/ha,100
same,Plant response rating: Speedwell,[1]; 250 g ai/ha,100
same,Plant response rating: Lambsquarters,[2]; 62 g ai/ha,100
same,Plant response rating: Lambsquarters,[2]; 125 g ai/ha,100
same,Plant response rating: Lambsquarters,[2]; 250 g ai/ha,100
same,pest or weed control at 125 g/ha,[3],90%
same,pest or weed control at 500 g/ha,[3],100%
same,Plant response rating: Blackgrass,[4]; 31 g ai/ha,10
same,Plant response rating: Blackgrass,[4]; 62 g ai/ha,20
same,Plant response rating: Blackgrass,[4]; 125 g ai/ha,30
same,Plant response rating: Blackgrass,[4]; 250 g ai/ha,45
same,Plant response rating: Pigweed,[5]; 31 g ai/ha,80
same,Plant response rating: Pigweed,[5]; 62 g ai/ha,85
same,Plant response rating: Pigweed,[5]; 125 g ai/ha,85
same,Plant response rating: Pigweed,[5]; 250 g ai/ha,85
same,Plant response rating: Chamomile,[6]; 31 g ai/ha,25
same,Plant response rating: Chamomile,[6]; 62 g ai/ha,35
same,Plant response rating: Chamomile,[6]; 125 g ai/ha,55
same,Plant response rating: Chamomile,[6]; 250 g ai/ha,65
same,"Plant response rating: Radish, Wild",[7]; 62 g ai/ha,100
same,"Plant response rating: Radish, Wild",[7]; 125 g ai/ha,100
same,"Plant response rating: Radish, Wild",[7]; 250 g ai/ha,100
same,Plant response rating: Oilseed Rape,[8]; 31 g ai/ha,70
same,Plant response rating: Oilseed Rape,[8]; 62 g ai/ha,80
same,Plant response rating: Oilseed Rape,[8]; 125 g ai/ha,100
same,Plant response rating: Oilseed Rape,[8]; 250 g ai/ha,100
"Cn1nc(-c2ccc(F)cc2)nc1Oc1cccc(C(F)(F)F)c1 [Compound 5, 3-(4-fluorophenyl)-1-methyl-5-[3-(trifluoromethyl)phenoxy]-1H-1,2,4-triazole]",pest or weed control at 125 g/ha,[3],50%
same,pest or weed control at 500 g/ha,[3],100%
"CCCc1nc(-c2ccc(F)cc2)nn1Cc1ccnc(C(F)(F)F)c1 [Compound 6, 4-[[3-(4-fluorophenyl)-5-propyl-1H-1,2,4-triazol-1-yl]methyl]-2-(trifluoromethyl)pyridine]",pest or weed control at 125 g/ha,[3],100%
same,pest or weed control at 500 g/ha,[3],100%
"CCOc1nc(-c2ccc(F)cc2)nn1Cc1ccnc(C(F)(F)F)c1 [Compound 8, 4-[[5-ethoxy-3-(4-fluorophenyl)-1H-1,2,4-triazol-1-yl]methyl]-2-(trifluoromethyl)pyridine]",Plant response rating: Speedwell,[1]; 62 g ai/ha,100
same,Plant response rating: Speedwell,[1]; 125 g ai/ha,100
same,Plant response rating: Speedwell,[1]; 250 g ai/ha,100
same,Plant response rating: Lambsquarters,[2]; 62 g ai/ha,100
same,Plant response rating: Lambsquarters,[2]; 125 g ai/ha,100
same,Plant response rating: Lambsquarters,[2]; 250 g ai/ha,100
same,pest or weed control at 125 g/ha,[3],90%
same,pest or weed control at 500 g/ha,[3],100%
same,Plant response rating: Blackgrass,[4]; 31 g ai/ha,50
same,Plant response rating: Blackgrass,[4]; 62 g ai/ha,50
same,Plant response rating: Blackgrass,[4]; 125 g ai/ha,75
same,Plant response rating: Blackgrass,[4]; 250 g ai/ha,70
same,Plant response rating: Pigweed,[5]; 31 g ai/ha,95
same,Plant response rating: Pigweed,[5]; 62 g ai/ha,95
same,Plant response rating: Pigweed,[5]; 125 g ai/ha,100
same,Plant response rating: Pigweed,[5]; 250 g ai/ha,95
same,Plant response rating: Chamomile,[6]; 31 g ai/ha,50
same,Plant response rating: Chamomile,[6]; 62 g ai/ha,50
same,Plant response rating: Chamomile,[6]; 125 g ai/ha,60
same,Plant response rating: Chamomile,[6]; 250 g ai/ha,65
same,"Plant response rating: Radish, Wild",[7]; 62 g ai/ha,60
same,"Plant response rating: Radish, Wild",[7]; 125 g ai/ha,100
same,"Plant response rating: Radish, Wild",[7]; 250 g ai/ha,100
same,Plant response rating: Oilseed Rape,[8]; 31 g ai/ha,70
same,Plant response rating: Oilseed Rape,[8]; 62 g ai/ha,75
same,Plant response rating: Oilseed Rape,[8]; 125 g ai/ha,100
same,Plant response rating: Oilseed Rape,[8]; 250 g ai/ha,100
"COc1nc(-c2ccc(F)cc2)nn1Cc1ccnc(C(F)(F)F)c1 [Compound 9, 4-[[3-(4-fluorophenyl)-5-methoxy-1H-1,2,4-triazol-1-yl]methyl]-2-(trifluoromethyl)pyridine]",pest or weed control at 125 g/ha,[3],90%
same,pest or weed control at 500 g/ha,[3],100%
"Cn1nc(-c2ccc(F)cc2)nc1C(O)c1ccnc(C(F)(F)F)c1 (stereo not drawn) [Compound 14, α-[3-(4-fluorophenyl)-1-methyl-1H-1,2,4-triazol-5-yl]-2-(trifluoromethyl)-4-pyridinemethanol]",pest or weed control at 125 g/ha,[3],40%
same,pest or weed control at 500 g/ha,[3],80%
"CCn1nc(-c2ccc(F)cc2)nc1C(O)c1ccnc(C(F)(F)F)c1 (stereo not drawn) [Compound 15, α-[1-Ethyl-3-(4-fluorophenyl)-1H-1,2,4-triazol-5-yl]-2-(trifluoromethyl)-4-pyridinemethanol]",pest or weed control at 125 g/ha,[3],0%
same,pest or weed control at 500 g/ha,[3],10%
"CCCn1nc(-c2ccc(F)cc2)nc1Cc1ccnc(C(F)(F)F)c1 [Compound 17, 4-[[3-(4-fluorophenyl)-1-propyl-1H-1,2,4-triazol-5-yl]methyl]-2-(trifluoromethyl)pyridine]",pest or weed control at 125 g/ha,[3],70%
same,pest or weed control at 500 g/ha,[3],100%
"CCn1nc(-c2ccc(F)cc2)nc1C(=O)c1ccnc(C(F)(F)F)c1 [Compound 19, [1-ethyl-3-(4-fluorophenyl)-1H-1,2,4-triazol-5-yl][2-(trifluoromethyl)-4-pyridinyl]methanone]",pest or weed control at 125 g/ha,[3],0%
same,pest or weed control at 500 g/ha,[3],0%
COc1nc(-c2ccc(C(F)(F)F)cc2)nn1Cc1ccnc(C(F)(F)F)c1 [Compound 25],"Plant response rating, Ragweed",[9]; 31 g ai/ha,20
same,"Plant response rating, Ragweed",[9]; 125 g ai/ha,30
same,"Plant response rating, Ryegrass, Italian",[10]; 31 g ai/ha,10
same,"Plant response rating, Ryegrass, Italian",[10]; 125 g ai/ha,30
same,"Plant response rating, Blackgrass",[11]; 31 g ai/ha,10
same,"Plant response rating, Blackgrass",[11]; 125 g ai/ha,30
CCOc1nc(-c2ccc(Cl)cc2)nn1Cc1ccnc(C(F)(F)F)c1 [Compound 26],"Plant response rating, Ragweed",[9]; 31 g ai/ha,30
same,"Plant response rating, Ragweed",[9]; 125 g ai/ha,50
same,"Plant response rating, Ryegrass, Italian",[10]; 31 g ai/ha,20
same,"Plant response rating, Ryegrass, Italian",[10]; 125 g ai/ha,50
same,"Plant response rating, Blackgrass",[11]; 31 g ai/ha,30
same,"Plant response rating, Blackgrass",[11]; 125 g ai/ha,50
"CS(=O)(=O)c1nc(-c2ccc(F)cc2)nn1Cc1ccnc(C(F)(F)F)c1 [Compound 29, 4-[[3-(4-fluorophenyl)-5-(methylsulfonyl)-1H-1,2,4-triazole-1-yl]methyl]-2-(trifluoromethyl)pyridine]",pest or weed control at 125 g/ha,[3],0%
same,pest or weed control at 500 g/ha,[3],0%
COc1nc(-c2ccccc2)nn1Cc1ccnc(C(F)(F)F)c1 [Compound 32],"Plant response rating, Ragweed",[9]; 125 g ai/ha,30
same,"Plant response rating, Ragweed",[9]; 500 g ai/ha,70
same,"Plant response rating, Ryegrass, Italian",[10]; 125 g ai/ha,0
same,"Plant response rating, Ryegrass, Italian",[10]; 500 g ai/ha,50
same,"Plant response rating, Blackgrass",[11]; 125 g ai/ha,20
same,"Plant response rating, Blackgrass",[11]; 500 g ai/ha,50
CCCOc1nc(-c2ccccc2)nn1Cc1ccnc(C(F)(F)F)c1 [Compound 33],"Plant response rating, Ragweed",[9]; 125 g ai/ha,30
same,"Plant response rating, Ragweed",[9]; 500 g ai/ha,50
same,"Plant response rating, Ryegrass, Italian",[10]; 125 g ai/ha,10
same,"Plant response rating, Ryegrass, Italian",[10]; 500 g ai/ha,40
same,"Plant response rating, Blackgrass",[11]; 125 g ai/ha,30
same,"Plant response rating, Blackgrass",[11]; 500 g ai/ha,50
